Measured values taken from a melting point compilation (Tetko et al.; mined from patent text by program, amines drawn as free bases though some values may be those of a salt).

Compared with Cc1ccccc1CC(=NC#N)NC(NC(=O)Cc1ccc2c(c1)OCCO2)C(C)(C)C (centres undefined), CN1Cc2ccccc2C(=O)c2cc(CC(=O)O)ccc21 is higher in melting point: 180 to 181 °C for the first, 194 to 196 °C for the second.

First: N#Cc1ccccc1-c1ccc(CC(NC(=O)Nc2ccccc2S(=O)(=O)N2CCCCC2)C(=O)O)cc1 (centres undefined)
Second: O=C(c1ccc(-c2ccccc2)cc1)N1Cc2ccc(C(=O)C(Cl)(Cl)Cl)n2Cc2ccccc21
The melting point of the first is lower: 140 °C for the first, 197 to 198 °C for the second.

Compared with O=c1cc(-c2ccccc2F)oc(N2CCOCC2)c1, O=C1Cc2cc(F)ccc2Oc2ccccc21 is lower in melting point: 137 to 138 °C for the first, 63 to 64 °C for the second.

First: Fc1ccc(N2CCN(Cc3cn4cc(Cl)cc(Cl)c4n3)CC2)cc1
Second: O=[N+]([O-])c1ccc(N2CCCNCC2)cc1
The melting point of the first is higher: 126 to 128 °C for the first, 115 to 116 °C for the second.

First: CCOC(=O)c1ccc(NCCC[Si](C)(C)C)cc1
Second: CCCCNc1c(C(=O)OCC)c(C)nc2sc(C)nc12
The melting point of the first is higher: 64 to 66 °C for the first, 53 to 54 °C for the second.

First: CCC(O)(CC)c1cc(C)c(-c2cccc(OCc3ccc(CO)c(CO)c3)c2C)c(C)c1
Second: CCc1ccc2c(c1)cc(C(=O)Nc1nc(-c3c(OC)cc(C)cc3OC)n(CCC3CCCCC3)n1)n2CC(=O)O
The melting point of the first is lower: 105 to 107 °C for the first, 198 °C for the second.

Compared with CC(C)(NC(=O)C1=C(C(=O)Nc2cc(OC3CCCC3)c(Cl)cc2F)CCCC1)c1ccccc1, Cc1ccc(CN2CCc3ccc(C(=O)CCC(=O)N4CCC(c5ccc(Cl)cc5)CC4)cc3CC2)cc1 is lower in melting point: 206 to 207 °C for the first, 137 to 138 °C for the second.

First: Cc1cccc(C)c1NC(=O)c1cc(CO)on1
Second: CCOC(=O)Cc1csc2nc(C(=O)NCc3cccc(OC)c3)[nH]c(=O)c12
The melting point of the first is lower: 95 °C for the first, 169 to 171 °C for the second.

Compared with CCOCCn1cc2c(C3C(=O)Nc4ccc(Br)cc43)nc(NCCN(C)C)nc2n1 (centres undefined), CN(C)CCNc1c2nc3ccccc3c-2n(C)c2ccccc12 is lower in melting point: 247 to 251 °C for the first, 162 to 164 °C for the second.

Compared with CCCCc1cn(CCC(C)C)c(=O)n1Cc1ccc(-c2ccccc2-c2nnn[nH]2)nc1, CC(C)c1nccn1Cc1ccc2c(c1)Cc1c(-c3ccsc3)n[nH]c1-2 is higher in melting point: 168 to 170 °C for the first, 260 to 262 °C for the second.

First: CCc1cnc(C2=NC(C)(C(C)C)C(=O)N2)c(C(=O)NCCCCCC(=O)O)c1 (centres undefined)
Second: CCCCCCCNC(=O)Oc1ccc2c(c1)CCCN2C
The melting point of the first is higher: 76 to 81 °C for the first, 60 °C for the second.

First: O=C(NCCCn1cncn1)c1ccc(Cl)c(Cl)c1
Second: CC1(C)CC(NC(=O)c2ccc(Cl)c([N+](=O)[O-])c2)CC(C)(C)N1
The melting point of the first is lower: 128 to 130 °C for the first, 166 to 168 °C for the second.

Compared with CN(C)S(=O)(=O)Oc1ccc(-c2ccccc2)cc1, CCC1(C)OC1COc1ccc(C(=O)c2ccccc2)cc1 (centres undefined) is lower in melting point: 105 to 107 °C for the first, 66 to 67 °C for the second.

Compared with CCOCc1nc2c(N)nc(C)c(C)c2n1C1(OC)CCCCC1, COC(=O)c1c(C)c([N+](=O)[O-])cc2nc(OC)c(OC)nc12 is higher in melting point: 172 to 173 °C for the first, 174 to 176 °C for the second.

First: CCN(c1cccc2cc(C(=O)NCCSC(c3ccccc3)(c3ccccc3)c3ccccc3)[nH]c12)S(=O)(=O)c1cccs1
Second: CC(C)c1cccc(C(C)C)c1NC(=O)Nc1ccccc1C(=O)NC1CCN(C(c2ccccc2)c2ccccc2)CC1
The melting point of the first is lower: 58 to 61 °C for the first, 118 °C for the second.

Compared with COc1cc2ncnc(N3CCN(C(=O)NCc4ccco4)CC3)c2cc1OC, COc1ccc(C)cc1NC(=O)Nc1ccc(N2CCN(C(=O)Nc3ccc(OCCO)cc3C(F)(F)F)CC2)c(C)c1 is higher in melting point: 168 to 170 °C for the first, 225 to 228 °C for the second.

Compared with CNC(=O)C(Cc1c[nH]c2ccccc12)NC(=O)C(CC(C)C)C(S)CC(=O)OC (centres undefined), CC(C)CC(NC(=O)OCc1ccccc1)C(=O)NC(C(=O)Nc1n[nH]c(=S)s1)C(C)C (centres undefined) is higher in melting point: 73 to 75 °C for the first, 146 °C for the second.

First: CSc1c(C#N)nn(-c2c(Cl)cc(C(F)(F)F)cc2Cl)c1N
Second: COc1cc(C)c(C(=O)c2c(C(F)(F)F)cc(Cl)nc2Cl)c(OC)c1OC
The melting point of the first is higher: 147 to 148 °C for the first, 81 to 83 °C for the second.

First: COc1ccc(-c2nc3c(F)cccc3s2)cc1OC
Second: COc1ccc(-c2c3c(cc4ccc5c(c24)OCO5)C(=O)OC3)cc1OC
The melting point of the first is lower: 129 °C for the first, 221 to 223 °C for the second.

First: CCOC(=O)c1c(C(F)(F)F)nc(-c2ccccc2)c(-c2ccccc2)c1O
Second: CC(C)n1nc(-c2c(-c3ccccc3)nn3ccc(C(=O)NC4CC4)cc23)ccc1=O
The melting point of the first is lower: 130 °C for the first, 184 to 185 °C for the second.

Compared with NC(=O)c1nc(C2OC(CO)C(O)C2O)n[nH]1 (centres undefined), COc1c(N)ccc2c1C(CCNC(C)=O)CC2 (centres undefined) is lower in melting point: 193 to 195 °C for the first, 130 to 132 °C for the second.

First: CCCCCCOC(=O)Oc1ccc(-c2ccc(C#N)cc2)cc1
Second: O=C1c2ccccc2C(=O)N1COc1ccc([N+](=O)[O-])cc1
The melting point of the first is lower: 87.1 to 87.5 °C for the first, 145 to 148 °C for the second.

Compared with Cc1nc2c(O)c(CCC(O)c3ccccc3)c(C(=O)N(C)C)cc2n1C (centres undefined), Cc1csc(C(=O)CCc2ccccc2)c1OCCN(C)C is lower in melting point: 216 to 218 °C for the first, 106 to 108 °C for the second.

Compared with COc1cccc(N2CC(=O)N(c3ccc(S(N)(=O)=O)cc3Cl)C2)c1, O=C(CS(=O)(=O)C(c1ccc(Cl)cc1)c1ccc(Cl)cc1)C(F)(F)F is lower in melting point: 200 to 203 °C for the first, 60 to 62 °C for the second.

First: CN(CCCNC(=O)c1cc(Cl)cc2nc3ccccc3nc12)CCCNC(=O)c1cc(Cl)cc2nc3ccccc3nc12
Second: Cc1cccc(NC(=O)c2ccccc2SSc2ccccc2C(=O)Nc2cccc(C)c2)c1
The melting point of the first is lower: 169 to 170 °C for the first, 193 to 195 °C for the second.

First: OCCNc1nc(NCCO)nc(Nc2ccccc2Cl)n1
Second: CCC(C)(C)Nc1c(NCc2cc(Cl)ccc2Cl)c(=O)c1=O
The melting point of the first is lower: 108 to 110 °C for the first, 195 to 196 °C for the second.

Compared with O=C1OCCC1Oc1ccc(C(F)(F)F)cc1 (centres undefined), O=C(N[C@H](Cc1cccc(C(F)(F)F)c1)[C@@H](O)c1ccc(F)cc1)c1ccc(F)c2ccccc12 (racemic) is higher in melting point: 84 to 86 °C for the first, 193 to 194 °C for the second.

First: Cc1[nH]c2ccccc2c1CCC(=O)N1CCC(O)(Cc2ccccc2)CC1
Second: CC(CCc1ccccc1)N(C)C1CCC(c2ccc(OCc3ccccc3)cc2)CC1 (racemic)
The melting point of the first is higher: 117 to 119 °C for the first, 54.5 to 55.5 °C for the second.

Compared with COc1ccc(Cl)c(C)c1C=O, CCCn1c(=O)c2c(nc(/C=C/c3ccc(O)c(OC)c3)n2C)n(CCC)c1=O is higher in melting point: 86 to 88 °C for the first, 187 to 188 °C for the second.

First: CS(=O)(=O)c1ccc(-c2c(-c3ccc(F)cc3)c(OCC(=O)c3ccc(F)cc3)nn2CC(=O)c2ccc(F)cc2)cc1
Second: COC(=O)c1ccc(CNc2cc(-c3cc4cc(F)c(F)cc4[nH]3)ccc2OC)cc1
The melting point of the first is higher: 194 to 196 °C for the first, 168 to 170 °C for the second.

First: O=c1cc(-c2ccncn2)nc2n1Cc1ccccc1N2
Second: O=Cc1cccc(-c2cc3nccnc3[nH]2)c1
The melting point of the first is higher: 290 to 292 °C for the first, 268 to 270 °C for the second.

Compared with CC(C)Cn1cc(F)c(-n2cncn2)nc1=O, O=C(O)CC(Br)C(Br)c1ccc(Cl)cc1Cl (centres undefined) is higher in melting point: 150 to 153 °C for the first, 184 to 185 °C for the second.

Compared with CCCCNC(=S)Nc1onc2c1CCC2, COc1cc(Cc2cnc(N)nc2N)c2c(c1OC)OC(C)CC2 (centres undefined) is higher in melting point: 93 °C for the first, 239 to 240 °C for the second.

First: CC(O)(C(O)CBr)C(O)CBr (centres undefined)
Second: Cc1ccc(C(Cl)=NOS(=O)(=O)CCCCl)cc1
The melting point of the first is higher: 78 to 80 °C for the first, 56 to 58 °C for the second.

In the case of COc1cccnc1CSCCN=C(NC#N)SC, the melting point is reported as 102 to 103 °C.
